{
  "source": "patent US11046680B1",
  "about": "“Heteroaryl-substituted triazoles as APJ receptor agonists” (priority 2016, dated 2021)",
  "note": "pEC50: −log10 of the molar value.",
  "data": [
    {"target": "human APJ receptor (Homo sapiens (Human), UniProt P35414)", "sequence (P35414 whole entry)": "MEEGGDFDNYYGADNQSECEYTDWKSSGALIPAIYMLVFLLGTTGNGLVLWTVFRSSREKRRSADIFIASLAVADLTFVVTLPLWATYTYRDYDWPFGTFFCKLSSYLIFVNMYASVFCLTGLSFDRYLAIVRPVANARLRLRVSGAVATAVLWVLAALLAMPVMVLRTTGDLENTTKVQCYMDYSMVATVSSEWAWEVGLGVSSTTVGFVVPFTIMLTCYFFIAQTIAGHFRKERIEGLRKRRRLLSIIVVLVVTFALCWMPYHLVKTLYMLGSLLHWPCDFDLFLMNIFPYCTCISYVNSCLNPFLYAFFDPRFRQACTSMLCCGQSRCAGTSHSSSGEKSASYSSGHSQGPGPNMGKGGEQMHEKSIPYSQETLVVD", "test": "biochemical", "assay_type": "biochemical", "conditions": "[35S]GTPγS binding, CHO membranes expressing human APJ receptor; read-out: Activity hAPJ SPA EC50 IP", "how_it_was_run": "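GTPγS binding on membranes from CHO cells stably expressing FLAG-tagged human APJ, with optimized GDP, MgCl2 and NaCl; incubated 90 min at RT before imaging read-out.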", "values": [
      {"compound": "COc1cccc(OC)c1-n1c(NS(=O)(=O)[C@H](C)[C@@H](C)c2ncc(F)cn2)nnc1-c1nc(C)cs1", "note": "(single isomer, unassigned) [Example 121.0]", "pEC50": 7.92},
      {"compound": "CCn1ccc(-c2nnc(NS(=O)(=O)[C@@H](C)[C@H](OC)c3ncc(F)cn3)n2-c2c(OC)cccc2OC)n1", "note": "[Example 134.0, (1R,2S)-N-(4-(2,6-Dimethoxyphenyl)-5-(1-ethyl-1H-pyrazol-3-yl)-4H-1,2,4-triazol-3-yl)-1-(5-fluoro-2-pyrimidinyl)-1-methoxy-2-propanesulfonamide]", "pEC50": 8.92},
      {"compound": "COc1cccc(OC)c1-n1c(NS(=O)(=O)[C@H](C)Cc2ncc(F)cn2)nnc1-c1ccncn1", "note": "(single isomer, unassigned) [Example 39.0, (R)-N-(4-(2,6-dimethoxyphenyl)-5-(pyrimidin-4-yl)-4H-1,2,4-triazol-3-yl)-1-(5-fluoropyrimidin-2-yl)propane-2-sulfonamide or (R)-N-(4-(2,6-dimethoxyphenyl)-5-(pyrimidin-4-yl)-4H-1,2,4-triazol-3-yl)-1-(5-fluoropyrimidin-2-yl)propane-2-sulfonamide]", "pEC50": 6.64},
      {"compound": "COc1cccc(OC)c1-n1c(NS(=O)(=O)[C@@H](C)[C@H](OC)c2ncc(Cl)cn2)nnc1-c1n[nH]c2ccc(C)cc12", "note": "[Example 418.0, (1R,25)-1-(5-chloropyrimidin-2-yl)-N-(4-(2,6-dimethoxyphenyl)-5-(5-methyl-1H-indazol-3-yl)-4H-1,2,4-triazol-3-yl)-1-methoxypropane-2-sulfonamide]", "pEC50": 8.26},
      {"compound": "COc1cccc(OC)c1-n1c(NS(=O)(=O)[C@@H](C)[C@H](C)c2ncc(C)cn2)nnc1-c1cc(C)[nH]n1", "note": "[Example 346.0, (2S,3R)-N-(4-(2,6-dimethoxyphenyl)-5-(5-methyl-1H-pyrazol-3-yl)-4H-1,2,4-triazol-3-yl)-3-(5-methyl-2-pyrimidinyl)-2-butanesulfonamide]", "pEC50": 8.82},
      {"compound": "COc1cccc(OC)c1-n1c(NS(=O)(=O)[C@H](C)Cc2ncc(F)cn2)nnc1-c1nc(C2CC2)cs1", "note": "(single isomer, unassigned) [Example 159.0, (R)-N-(5-(4-cyclopropylthiazol-2-yl)-4-(2,6-dimethoxyphenyl)-4H-1,2,4-triazol-3-yl)-1-(5-fluoropyrimidin-2-yl)propane-2-sulfonamide or (S)-N-(5-(4-cyclopropylthiazol-2-yl)-4-(2,6-dimethoxyphenyl)-4H-1,2,4-triazol-3-yl)-1-(5-fluoropyrimidin-2-yl)propane-2-sulfonamide]", "pEC50": 9.21},
      {"compound": "COc1ncnc(OC)c1-n1c(NS(=O)(=O)[C@@H](C)[C@H](C)c2ncc(Cl)cn2)nnc1-c1cnn2ccccc12", "note": "[Example 440.0, (2S,3R)-3-(5-chloropyrimidin-2-yl)-N-(4-(4,6-dimethoxypyrimidin-5-yl)-5-(pyrazolo[1,5-a]pyridin-3-yl)-4H-1,2,4-triazol-3-yl)butane-2-sulfonamide]", "pEC50": 9.02},
      {"compound": "CO[C@H]1CCC[C@@H](OC)C1n1c(NS(=O)(=O)[C@@H](C)[C@H](C)c2ncc(Cl)cn2)nnc1-c1cnn2ccccc12", "note": "(stereo partly drawn) [Example 442.0, (2S,3R)-3-(5-chloropyrimidin-2-yl)-N-(4-((1r,2R,6S)-2,6-dimethoxycyclohexyl)-5-(pyrazolo[1,5-a]pyridin-3-yl)-4H-1,2,4-triazol-3-yl)butane-2-sulfonamide]", "pEC50": 6.72},
      {"compound": "COc1cccc(OC)c1-n1c(NS(=O)(=O)[C@H](C)[C@H](O)c2ncc(C)cn2)nnc1-c1nc(C)cs1", "note": "(single isomer, unassigned) [Example 317.0, (1R,2R)-N-(4-(2,6-dimethoxyphenyl)-5-(4-methylthiazol-2-yl)-4H-1,2,4-triazol-3-yl)-1-hydroxy-1-(5-methylpyrimidin-2-yl)propane-2-sulfonamide or (1S,2S)-N-(4-(2,6-dimethoxyphenyl)-5-(4-methylthiazol-2-yl)-4H-1,2,4-triazol-3-yl)-1-hydroxy-1-(5-methylpyrimidin-2-yl)propane-2-sulfonamide]", "pEC50": 8.18},
      {"compound": "COc1cccc(OC)c1-n1c(NS(=O)(=O)[C@@H](C)[C@H](OC)c2ncc(Cl)cn2)nnc1-c1c(C)nc2ccccn12", "note": "[Example 428.0, (1R,25)-1-(5-chloropyrimidin-2-yl)-N-(4-(2,6-dimethoxyphenyl)-5-(2-methylimidazo[1,2-a]pyridin-3-yl)-4H-1,2,4-triazol-3-yl)-1-methoxypropane-2-sulfonamide]", "pEC50": 6.92},
      {"compound": "COc1cccc(OC)c1-n1c(NS(=O)(=O)[C@H](C)Cc2ncc(F)cn2)nnc1-c1nc(C2CC2)cs1", "note": "[Example 161.0]", "pEC50": 8.42},
      {"compound": "COc1cccc(OC)c1-n1c(NS(=O)(=O)[C@@H](C)[C@H](C)c2ncc(C#N)cn2)nnc1-c1ccn(C(F)F)n1", "note": "[Example 224.0, (2S,3R)-3-(5-cyano-2-pyrimidinyl)-N-(5-(1-(difluoromethyl)-1H-pyrazol-3-yl)-4-(2,6-dimethoxyphenyl)-4H-1,2,4-triazol-3-yl)-2-butanesulfonamide]", "pEC50": 9.39},
      {"compound": "COc1ncnc(OC)c1-n1c(NS(=O)(=O)[C@@H](C)[C@@H](OC(C)C)c2cnc(C)cn2)nnc1-c1ccn(C)n1", "note": "[Example 461.0, (1S,2S)-N-(4-(4,6-dimethoxy-5-pyrimidinyl)-5-(1-methyl-1H-pyrazol-3-yl)-4H-1,2,4-triazol-3-yl)-1-(5-methyl-2-pyrazinyl)-1-(2-propanyloxy)-2-propanesulfonamide]", "pEC50": 8.05},
      {"compound": "CCc1csc(-c2nnc(NS(=O)(=O)CCc3ccc(F)cc3C#N)n2-c2c(OC)cccc2OC)n1", "note": "[Example 153.0, 2-(2-cyano-4-fluorophenyl)-N-(4-(2,6-dimethoxyphenyl)-5-(4-ethylthiazol-2-yl)-4H-1,2,4-triazol-3-yl)ethanesulfonamide]", "pEC50": 7.96},
      {"compound": "COc1cccc(OC)c1-n1c(NS(=O)(=O)[C@H](C)[C@@H](OC)c2ccc(C#N)cc2C#N)nnc1-c1ccn(C)n1", "note": "(single isomer, unassigned) [Example 265.0, (1S,2R)-1-(2,4-dicyanophenyl)-N-(4-(2,6-dimethoxyphenyl)-5-(1-methyl-1H-pyrazol-3-yl)-4H-1,2,4-triazol-3-yl)-1-methoxy-2-propanesulfonamide or (1R,2S)-1-(2,4-dicyanophenyl)-N-(4-(2,6-dimethoxyphenyl)-5-(1-methyl-1H-pyrazol-3-yl)-4H-1,2,4-triazol-3-yl)-1-methoxy-2-propanesulfonamide]", "pEC50": 7.15},
      {"compound": "(2S)-N-(4-(2,6-dimethoxyphenyl)-5-(2-pyrazinyl)-4H-1,2,4-triazol-3-yl)-1-(5-fluoro-2-pyrimidinyl)-2-propanesulfonamide and (2R)-N-(4-(2,6-dimethoxyphenyl)-5-(2-pyrazinyl)-4H-1,2,4-triazol-3-yl)-1-(5-fluoro-2-pyrimidinyl)-2-propanesulfonamide [Example 182.0]", "pEC50": 7.08},
      {"compound": "COc1cnc([C@H](C)[C@H](C)S(=O)(=O)Nc2nnc(-c3ccn(C)n3)n2-c2c(OC)ncnc2OC)nc1", "note": "[Example 297.0]", "pEC50": 9.85},
      {"compound": "CC(C)O[C@@H](c1ncc(Cl)cn1)[C@H](C)S(=O)(=O)Nc1nnc(-c2ccn(C)n2)n1C1CC1", "note": "[Example 532.0, (1S,2S)-1-(5-chloro-2-pyrimidinyl)-N-(4-cyclopropyl-5-(1-methyl-1H-pyrazol-3-yl)-4H-1,2,4-triazol-3-yl)-1-(2-propanyloxy)-2-propanesulfonamide]", "pEC50": 7.66},
      {"compound": "CO[C@H](c1ncc(Cl)cn1)[C@H](C)S(=O)(=O)Nc1nnc(-c2nn(C)c3c2CCCC3)n1C1CC1", "note": "[Example 514.0, (1R,2S)-1-(5-chloropyrimidin-2-yl)-N-(4-cyclopropyl-5-(1-methyl-4,5,6,7-tetrahydro-1H-indazol-3-yl)-4H-1,2,4-triazol-3-yl)-1-methoxypropane-2-sulfonamide]", "pEC50": 7.72},
      {"compound": "COc1cccc(OC)c1-n1c(NS(=O)(=O)[C@@H](C)[C@H](C)c2ncc(F)cn2)nnc1-c1ccn(C(F)F)n1", "note": "[Example 194.0, (2S,3R)-N-(5-(1-(difluoromethyl)-1H-pyrazol-3-yl)-4-(2,6-dimethoxyphenyl)-4H-1,2,4-triazol-3-yl)-3-(5-fluoro-2-pyrimidinyl)-2-butanesulfonamide]", "pEC50": 9.32},
      {"compound": "CCc1nc(-c2nnc(NS(=O)(=O)CCc3ncc(F)cn3)n2-c2c(OC)cccc2OC)cs1", "note": "[Example 99.0, N-(4-(2,6-dimethoxyphenyl)-5-(2-ethylthiazol-4-yl)-4H-1,2,4-triazol-3-yl)-2-(5-fluoropyrimidin-2-yl)ethanesulfonamide]", "pEC50": 7.89},
      {"compound": "COc1cccc(OC)c1-n1c(NS(=O)(=O)[C@@H](C)[C@@H](C)c2ncc(F)cn2)nnc1-c1nc(C)cs1", "note": "(single isomer, unassigned) [Example 119.0]", "pEC50": 8.34},
      {"compound": "COc1cccc(OC)c1-n1c(NS(=O)(=O)[C@@H](C)[C@H](OC)c2ncc(C)cn2)nnc1-c1ccc(Cl)s1", "note": "[Example 334.0, (1R,2S)-N-(5-(5-chloro-2-thiophenyl)-4-(2,6-dimethoxyphenyl)-4H-1,2,4-triazol-3-yl)-1-methoxy-1-(5-methyl-2-pyrimidinyl)-2-propanesulfonamide]", "pEC50": 9.28},
      {"compound": "COc1ncnc(OC)c1-n1c(NS(=O)(=O)[C@@H](C)[C@H](C)c2ncc(Cl)cn2)nnc1-c1n[nH]c2ccccc12", "note": "[Example 426.0, (2S,3R)-3-(5-chloropyrimidin-2-yl)-N-(4-(4,6-dimethoxypyrimidin-5-yl)-5-(1H-indazol-3-yl)-4H-1,2,4-triazol-3-yl)butane-2-sulfonamide]", "pEC50": 7.85},
      {"compound": "COc1cnc([C@@H](C)[C@H](C)S(=O)(=O)Nc2nnc(-c3ccn(C)n3)n2-c2c(F)cccc2F)cn1", "note": "[Example 230.0, (2S,3R)-N-(4-(2,6-difluorophenyl)-5-(1-methyl-1H-pyrazol-3-yl)-4H-1,2,4-triazol-3-yl)-3-(5-methoxy-2-pyrazinyl)-2-butanesulfonamide]", "pEC50": 7.60},
      {"compound": "COCC1(n2c(NS(=O)(=O)[C@@H](C)[C@H](OC)c3ncc(Cl)cn3)nnc2-c2nn(C)c3c2CCCC3)CC1", "note": "[Example 513.0, (1R,2S)-1-(5-chloropyrimidin-2-yl)-1-methoxy-N-(4-(1-(methoxymethyl)cyclopropyl)-5-(1-methyl-4,5,6,7-tetrahydro-1H-indazol-3-yl)-4H-1,2,4-triazol-3-yl)propane-2-sulfonamide]", "pEC50": 8.51}
    ]}
  ]
}
